In paper PMC11995724, “Antibiotic target discovery by integrated phenotypic and activity-based profiling of electrophilic fragments” (Cell chemical biology, 2025):

Assay: in vitro
Details: human, hek293t cells

Row | SMILES | viability at 48 h, 25 µM [%]
1 | N#CC(=Cc1ccc(SC(F)(F)F)cc1)C(=O)NC1CC1 [9-C14, 2-cyano-N-cyclopropyl-3-{4-[(trifluoromethyl)sulfanyl]phenyl}prop-2-enamide] | 55.5
2 | CC(C)NC(=O)C(C#N)=Cc1ccccc1OC(C)C [9-C15, 2-cyano-N-(propan-2-yl)-3-[2-(propan-2-yloxy)phenyl]prop-2-enamide] | 112
3 | N#CC(=Cc1csc(C2CC2)n1)C(=O)Nc1ccccc1C(=O)O [9-C16, 2-[2-cyano-3-(2-cyclopropyl-1,3-thiazol-4-yl)prop-2-enamido]benzoic acid] | 92.9
4 | N#CC(=Cc1ccsc1)C(=O)Nc1nccs1 [9-C17, 2-cyano-N-(1,3-thiazol-2-yl)-3-(thiophen-3-yl)prop-2-enamide] | 121
5 | N#CC(=Cc1sc2ccccc2c1Cl)C(=O)NC1CC1 [9-C18, 3-(3-chloro-1-benzothiophen-2-yl)-2-cyano-N-cyclopropylprop-2-enamide] | 86.4
6 | N#CC(=Cc1cccc(O)c1)C(=O)Nc1ccc(SC(F)F)cc1 [9-C19, 2-cyano-N-{4-[(difluoromethyl)sulfanyl]phenyl}-3-(3-hydroxyphenyl)prop-2-enamide] | 99.7
7 | COc1cccc(NC(=O)C(C#N)=Cc2c[nH]c(-c3ccccc3)n2)c1 [9-C20, 2-cyano-N-(3-methoxyphenyl)-3-(2-phenyl-1H-imidazol-4-yl)prop-2-enamide] | 108
8 | N#CC(=Cc1ccc(F)cc1)C(=O)Nc1cccc2ncccc12 [9-C21, 2-cyano-3-(4-fluorophenyl)-N-(quinolin-5-yl)prop-2-enamide] | 118
9 | Cc1ccc(C=C(C#N)C(=O)Nc2ccccc2Cl)s1 [9-C22, N-(2-chlorophenyl)-2-cyano-3-(5-methylthiophen-2-yl)prop-2-enamide] | 107
10 | Cc1nn(C)c(C)c1C=C(C#N)C(=O)Nc1ccc2c(c1)OCCO2 [9-D03, 2-cyano-N-(2,3-dihydro-1,4-benzodioxin-6-yl)-3-(1,3,5-trimethyl-1H-pyrazol-4-yl)prop-2-enamide] | 112
11 | CCOc1cc2c(cc1C=C(C#N)C(N)=O)OC(C)C2 (stereo not drawn) [9-D04, 2-cyano-3-(5-ethoxy-2-methyl-2,3-dihydro-1-benzofuran-6-yl)prop-2-enamide] | 128
12 | Cc1ccc(NC(=O)C(C#N)=Cc2ccccc2OC(F)F)cc1 [9-D05, 2-cyano-3-[2-(difluoromethoxy)phenyl]-N-(4-methylphenyl)prop-2-enamide] | 96.9
13 | CCOC=C(C#N)C(=O)N1CCN(S(=O)(=O)c2cc[nH]n2)CC1 [9-D06, 3-ethoxy-2-[4-(1H-pyrazole-3-sulfonyl)piperazine-1-carbonyl]prop-2-enenitrile] | 110
14 | COc1ccc2cc(C=C(C#N)C(=O)NCc3ccccc3)ccc2c1 [9-D07, N-benzyl-2-cyano-3-(6-methoxynaphthalen-2-yl)prop-2-enamide] | 108
15 | N#CC1=C(N2CCOCC2)SC(c2ccc([N+](=O)[O-])cc2)NC1=O (stereo not drawn) [9-D08, 6-(morpholin-4-yl)-2-(4-nitrophenyl)-4-oxo-3,4-dihydro-2H-1,3-thiazine-5-carbonitrile] | 112
16 | N#CC(=Cc1ccc(Cl)cc1)C(=O)Nc1cccc2c1C(=O)NC2=O [9-D09, 3-(4-chlorophenyl)-2-cyano-N-(1,3-dioxo-2,3-dihydro-1H-isoindol-4-yl)prop-2-enamide] | 105
17 | CN(C)c1ccc(C=C(C#N)C(=O)NCc2ccco2)cc1 [9-D10, 2-cyano-3-[4-(dimethylamino)phenyl]-N-[(furan-2-yl)methyl]prop-2-enamide] | 101
18 | CCCn1c(C)cc(C=C(C#N)C(=O)N2CCCCC2)c1C [9-D11, 3-(2,5-dimethyl-1-propyl-1H-pyrrol-3-yl)-2-(piperidine-1-carbonyl)prop-2-enenitrile] | 106
19 | Cc1ccc(C)c(NC(=O)C(C#N)=Cc2ccc(N3CCCCC3)o2)c1 [9-D12, 2-cyano-N-(2,5-dimethylphenyl)-3-[5-(piperidin-1-yl)furan-2-yl]prop-2-enamide] | 69.5
20 | Cc1cc(C=C(C#N)C(=O)Nc2nccs2)cc(C)c1O [9-D13, 2-cyano-3-(4-hydroxy-3,5-dimethylphenyl)-N-(1,3-thiazol-2-yl)prop-2-enamide] | 106
21 | CNC(=O)C(C#N)=Cc1cccc(C)c1C [9-D14, 2-cyano-3-(2,3-dimethylphenyl)-N-methylprop-2-enamide] | 112
22 | CC(NC(=O)C(C#N)=Cc1cc(O)ccc1[N+](=O)[O-])c1ccccc1 (stereo not drawn) [9-D15, 2-cyano-3-(5-hydroxy-2-nitrophenyl)-N-(1-phenylethyl)prop-2-enamide] | 101
23 | N#CC(=Cc1csc2ccccc12)C(=O)NCc1ccco1 [9-D16, 3-(1-benzothiophen-3-yl)-2-cyano-N-[(furan-2-yl)methyl]prop-2-enamide] | 108
24 | Cc1cccc(NC(=O)C(C#N)=Cc2cc(C)n(C3CC3)c2C)c1 [9-D17, 2-cyano-3-(1-cyclopropyl-2,5-dimethyl-1H-pyrrol-3-yl)-N-(3-methylphenyl)prop-2-enamide] | 94.3

Row | SMILES | viability at 48 h, 25 µM [%]
25 | Cn1cc(C=C(C#N)C(=O)N2CCCC2)c(-c2cc3ccccc3o2)n1 [9-D18, 3-[3-(1-benzofuran-2-yl)-1-methyl-1H-pyrazol-4-yl]-2-(pyrrolidine-1-carbonyl)prop-2-enenitrile] | 106
26 | CC(=O)Nc1ccc(C=C(C#N)C(=O)Nc2cccc(C)c2C)cc1 [9-D19, 2-cyano-N-(2,3-dimethylphenyl)-3-(4-acetamidophenyl)prop-2-enamide] | 107
27 | N#CC(=Cc1ccco1)C(=O)Nc1cc2c(cc1Cl)NC(=O)CO2 [9-D20, N-(6-chloro-3-oxo-3,4-dihydro-2H-1,4-benzoxazin-7-yl)-2-cyano-3-(furan-2-yl)prop-2-enamide] | 87
28 | C=CCNC(=O)C(C#N)=Cc1ccc(C)c(C)c1 [9-D21, 2-cyano-3-(3,4-dimethylphenyl)-N-(prop-2-en-1-yl)prop-2-enamide] | 110
29 | COCCNC(=O)C(C#N)=Cc1ccc(O)cc1 [9-D22, 2-cyano-3-(4-hydroxyphenyl)-N-(2-methoxyethyl)prop-2-enamide] | 110
30 | N#CC(=Cc1ccc2[nH]c(=O)[nH]c2c1)C(=O)NC1CCCC1 [9-E03, 2-cyano-N-cyclopentyl-3-(2-oxo-2,3-dihydro-1H-1,3-benzodiazol-5-yl)prop-2-enamide] | 121
31 | Cc1ccc(NC(=O)C(C#N)=Cc2ccc(C(C)(C)C)cc2)cc1C [9-E04, 3-(4-tert-butylphenyl)-2-cyano-N-(3,4-dimethylphenyl)prop-2-enamide] | 104
32 | CC(C#N)Oc1ccc(C=C(C#N)C(=O)Nc2ccccc2Cl)cc1 (stereo not drawn) [9-E05, N-(2-chlorophenyl)-2-cyano-3-[4-(1-cyanoethoxy)phenyl]prop-2-enamide] | 111
33 | Cc1ccccc1C(C)NC(=O)C(C#N)=Cc1ccco1 (stereo not drawn) [9-E06, 2-cyano-3-(furan-2-yl)-N-[1-(2-methylphenyl)ethyl]prop-2-enamide] | 107
34 | Cc1nn(-c2ccccc2)c(C)c1C=C(C#N)C(=O)Nc1nccs1 [9-E07, 2-cyano-3-(3,5-dimethyl-1-phenyl-1H-pyrazol-4-yl)-N-(1,3-thiazol-2-yl)prop-2-enamide] | 119
35 | COc1ccc2cc(C=C(C#N)C(=O)Nc3nccs3)ccc2c1 [9-E08, 2-cyano-3-(6-methoxynaphthalen-2-yl)-N-(1,3-thiazol-2-yl)prop-2-enamide] | 63.3
36 | CCCCNC(=O)C(C#N)=Cc1cc(C)c(O)c(C)c1 [9-E09, N-butyl-2-cyano-3-(4-hydroxy-3,5-dimethylphenyl)prop-2-enamide] | 111
37 | COc1ccc(C=C(C#N)C(=O)Nc2cccc3ccccc23)cc1 [9-E10, 2-cyano-3-(4-methoxyphenyl)-N-(naphthalen-1-yl)prop-2-enamide] | 105
38 | CC(C)NC(=O)C(C#N)=Cc1ccc2c(c1)OCCO2 [9-E11, 2-cyano-3-(2,3-dihydro-1,4-benzodioxin-6-yl)-N-(propan-2-yl)prop-2-enamide] | 118
39 | Cc1cccc(NC(=O)C(C#N)=Cc2ccc(F)cc2)c1 [9-E12, 2-cyano-3-(4-fluorophenyl)-N-(3-methylphenyl)prop-2-enamide] | 90.9
40 | CC(C)NC(=O)C(C#N)=Cc1c(Cl)cccc1Cl [9-E13, 2-cyano-3-(2,6-dichlorophenyl)-N-(propan-2-yl)prop-2-enamide] | 87
41 | N#CC(=Cc1ccc(N)cc1)C(=O)N1CCCC1 [9-E14, 3-(4-aminophenyl)-2-(pyrrolidine-1-carbonyl)prop-2-enenitrile] | 101
42 | N#CC(=Cc1ccc(Cl)c([N+](=O)[O-])c1)C(=O)NCc1ccco1 [9-E15, 3-(4-chloro-3-nitrophenyl)-2-cyano-N-[(furan-2-yl)methyl]prop-2-enamide] | 6.64
43 | N#CC(=Cc1ccco1)C(=O)Nc1ccc2nc(S)oc2c1 [9-E16, 2-cyano-3-(furan-2-yl)-N-(2-sulfanyl-1,3-benzoxazol-6-yl)prop-2-enamide] | 110
44 | CCCCNC(=O)C(C#N)=Cc1cccs1 [9-E17, N-butyl-2-cyano-3-(thiophen-2-yl)prop-2-enamide] | 117
45 | COc1cc(Cl)ccc1CNC(=O)C(C#N)=Cc1ccco1 [9-E18, N-[(4-chloro-2-methoxyphenyl)methyl]-2-cyano-3-(furan-2-yl)prop-2-enamide] | 109
46 | Cc1ccc(C=C(C#N)C(=O)Nc2cc(Cl)ccc2Cl)s1 [9-E19, 2-cyano-N-(2,5-dichlorophenyl)-3-(5-methylthiophen-2-yl)prop-2-enamide] | 107
47 | N#CC(=Cc1cnc2ccc(C#N)cn12)C(=O)Nc1ccc(F)cc1 [9-E20, 2-cyano-3-{6-cyanoimidazo[1,2-a]pyridin-3-yl}-N-(4-fluorophenyl)prop-2-enamide] | 99.4
48 | Cc1ccccc1NC(=O)C(C#N)=Cc1ccc(N2CCCCC2)cc1 [9-E21, 2-cyano-N-(2-methylphenyl)-3-[4-(piperidin-1-yl)phenyl]prop-2-enamide] | 91.8
